{"source": "patent US20090203145A1", "about": "“METHODS FOR ANALYSIS OF VITAMINS” (priority 2008, published 2009)", "tested_on": "specific bacteria", "experiment": "Microbiological method for B6 (Official Method 961.15, Modified): signal response of similar molecules", "assay_type": "cell-based", "details": "microbiological B6 assay; for Signal Response in Microbiological Method: Response, %: B6 (pyridoxine) given as 100; for response in microbiological method compared with B6: statement in words", "description": "The often low concentrations of vitamins in foods can make measuring the level of vitamins in various foods difficult. For example, the low concentration of B vitamins in infant formula makes it difficult to be measured by traditional measurement techniques such as HPLC. Currently, microbiological methods for measuring B vitamins are widely used at laboratories. This method is based on the growth of specific bacteria in the presence of a specific B vitamin and can only be measured one analyte per assay. The analysis process may take more than 30 hours. Poor reproducibility is another disadvantage. It is not unusual for a bacterial response to vary with different compounds and show low specificity. Monitoring different chemical forms. Current microbiological method have less specificity, such as those described in Official Method 961.15 (Modified), Official Methods of Analysis of AOAC International, 17th ed., AOAC International, Gaithersburg Md. (2000). In the case of B6, for example, other similar molecules may have a similar response. […] However, these compounds can be distinguished by LC/MS/MS without any problem in real samples such as milk."}
{"smiles": "Cc1ncc(CO)c(CO)c1O", "note": "[B6, pyridoxine, pyridoxine]", "values": [{"measurement": "Signal Response in Microbiological Method: Response, %", "result": 100, "unit": "%"}]}
{"smiles": "Cc1ncc(CO)c(C=O)c1O", "note": "[Pyridoxal, pyridoxal]", "values": [{"measurement": "Signal Response in Microbiological Method: Response, %", "result": 112, "unit": "%"}, {"measurement": "response in microbiological method compared with B6", "result": "response as strong as B6"}]}
{"smiles": "Cc1ncc(CO)c(CN)c1O", "note": "[Pyridoxamine, pyridoxamine]", "values": [{"measurement": "Signal Response in Microbiological Method: Response, %", "result": 84, "unit": "%"}, {"measurement": "response in microbiological method compared with B6", "result": "response as strong as B6"}]}
{"smiles": "Cc1ncc(CO)c(C(=O)O)c1O", "note": "[Pyridoxic acid, 4-pyridoxic acid]", "values": [{"measurement": "Signal Response in Microbiological Method: Response, %", "result": 0, "unit": "%"}]}
